{"source": "patent US20250368629A1", "about": "“FLAVONOID COMPOUNDS AND METHODS AND MATERIALS FOR USING FLAVONOID COMPOUNDS TO TREAT FIBROTIC CONDITIONS” (Mayo Foundation for Medical Education and Research, priority 2022, published 2025)", "key": {"[1]": {"test_system": "senescent human adult lung fibroblasts", "experiment": "Apoptosis of senescent lung fibroblasts (cleaved caspase-3, DAPI)", "assay_type": "cell-based", "conditions": "Fibroblast; replicatively senescent human adult lung fibroblasts, 96 hours, 6-point dose-response, N=3", "description": "Human adult lung fibroblasts were replicatively passaged until senescence (confirmed by RNA and senescence associated beta galactosidase staining). In a parallel experiment, low passage proliferating fibroblasts from the same donor were compared. Cells were plated into 96-well plates and treated with the indicated compound (6-point dose-response) and incubated for 96 hours. Cells were then fixed using 4% PFA, permeabilized using 0.25% triton x-100, and nuclear stained using a primary antibody for cleaved caspase-3, secondary fluorescence conjugated antibody, and DAPI. Cells were then imaged using a 4× objective on a Cytation5 microscope and cell counts were quantified using automated software (Biotek Gen5). Data shown are the EC50 values calculated for each compounds efficacy to induce apoptosis in senescence vs. proliferating lung fibroblasts, from the calculated dose-response curves, N=3 independent experiments."}, "[2]": {"biological_target": "T1, STK17B (Homo sapiens, UniProt O94768)", "T1 construct": "purchased Reaction Biology", "T1 sequence (O94768 1-372)": "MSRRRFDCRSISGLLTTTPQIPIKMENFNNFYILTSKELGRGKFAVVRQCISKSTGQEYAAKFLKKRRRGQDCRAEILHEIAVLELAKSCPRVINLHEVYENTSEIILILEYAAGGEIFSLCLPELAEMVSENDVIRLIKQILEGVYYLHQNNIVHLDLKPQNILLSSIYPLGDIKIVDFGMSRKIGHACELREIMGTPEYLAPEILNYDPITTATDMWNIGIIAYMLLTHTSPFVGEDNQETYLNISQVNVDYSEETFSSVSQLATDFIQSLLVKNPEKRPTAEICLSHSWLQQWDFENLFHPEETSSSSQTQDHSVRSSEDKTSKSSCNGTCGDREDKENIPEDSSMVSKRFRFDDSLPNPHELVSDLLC", "experiment": "Kinase dose response curve on STK17B", "assay_type": "biochemical", "conditions": "FIG. 4A, read-out: half maximal inhibitory concentration (IC50) on STK17B", "description": "FIGS. 4A-4B show mechanism of action of F-4N. […] Dose response curves on STK17A and STK17B show half maximal inhibitory concentration (IC50) values of ˜200 nM. […] FIG. 4A. F-4N was sent to Reaction Biology to be tested against their entire wild-type kinase panel. 1 μM F-4N was tested in an ATP competition assay against 420+ kinases. Z-scores were calculated to identify true hits over noise."}, "[3]": {"test_system": "10-18-month-old C57/B6 mice", "experiment": "Non-resolving model of lung fibrosis (bleomycin, aged mice)", "assay_type": "in vivo, mouse", "description": "FIG. 3. Lung fibrosis was induced in 10-18-month-old C57/B6 mice (average ˜15-months) using intratracheal bleomycin (1.1 units/kg) on day 0 of the study. On day 14 one group was administered F-4N (10 mg/kg daily i.p.) for 14 days prior to harvesting the lung for outcomes and senescence clearance and fibrosis. Lung architecture and fibrosis were observed by trichome histological staining and hydroxyproline content. Hydroxyproline content was measured using a hydroxyproline assay kit (Biovision) according to the manufacturer's instructions with slight modification. The lung tissues were weighed, homogenized in sterile water (10 mg of tissue per 100 μL H2O) and hydrolyzed in 12 M HCl in a pressure-tight, Teflon capped vial at 120° C. for 3 hours followed by filtration through a 45 μm Spin-X Centrifuge Tube filter (Corning). Ten μL of the hydrolyzed samples was dried in a Speed-Vac for 2 hours, followed by incubation with 100 μL of Chloramine T reagent for 5 minutes at room temperature and 100 μL of 4-(Dimethylamino)benzaldehyde (DMAB) for 90 minutes at 60° C. The absorbance of oxidized hydroxyproline was determined at 560 nm. Hydroxyproline concentrations were calculated from a standard curve generated using known concentrations of trans-4-hydroxyl-L-proline. The total amount of protein isolated from the weighed tissues was determined by using a protein assay kit (Bio-Rad, absorbance at 595 nm). The amount of collagen was expressed in μg/mg total protein. qPCR: RNA isolation using RNeasy Plus Mini Kit (Qiagen) according to the manufacturer's instructions. Isolated RNA (250 ng) was then used to synthesize cDNA using SuperScript VILO (Invitrogen). Quantitative PCR was performed using FastStart Essential DNA Green Master (Roche) and analyzed using a LightCycler 96 (Roche). Data are expressed as a fold change by ΔΔCt relative to glyceraldehyde-3-phosphate dehydrogenase (GAPDH)."}, "[4]": {"experiment": "Levels of unbound compound in plasma and liver of mice (LC-MS)", "assay_type": "in vivo, mouse", "conditions": "2 hours and 8 hours after the final dose, oral gavage 7 days", "description": "Levels of F-4N in the plasma and liver of mice following F-4N exposure were examined (FIG. 26). Plasma and liver tissue was collected 2 hours and 8 hours after the final dose from the mice subjected to the protocol described in FIG. 24A. Levels of unbound (free) F-4N were analyzed by Cyprotex (Framingham, MA) using LC-MS."}, "[5]": {"test_system": "sections of lung tissue from IPF patient transplant lungs", "experiment": "IPF patient-derived organotypic ex vivo culture", "assay_type": "cell-based, human", "conditions": "3 μM, 4 days ex vivo, N=3 patient samples", "description": "An IPF patient-derived organotypic ex vivo culture was used to determine efficacy of F-4N. Sections of lung tissue (about […]) were cut from IPF patient transplant lungs and cultured for 4 days ex vivo with DMSO (0.1%) or F-4N (3 μM). Lung tissue slices were collected, RNA was isolated, and qPCR analysis was performed (FIG. 31). Media was also collected for ELISA analysis for IL-6 (FIG. 31B). N=3 patient samples."}, "[6]": {"test_system": "mice with intratracheal bleomycin injury", "experiment": "Acute exposure bleomycin dose-finding study", "assay_type": "in vivo, mouse", "description": "On day 1 mice received intratracheal sham or bleomycin injury. On day 7 mice were divided into groups and treated daily with vehicle, 10, 30, or 100 mg/kg F-4N by oral gavage for 7 days. On day 14 organs and plasma were collected. Weight changes were measured throughout the experiment (FIG. 24B). Whole lung RNA expression of profibrotic genes as also examined (FIG. 24C). […] F-4N efficacy biomarkers were identified. RNA was collected from vehicle treated mice and from mice treated with 30 mg/kg F-4N. RNA was analyzed using the RT2 Profiler PCR array (Qiagen Catalog No.—330231) which measures expression of 89 different cytokines and chemokines. […] A level of genes whose expression is altered in response to F-4N can be used as a biomarker for F-4N efficacy."}, "[7]": {"experiment": "Stability in mouse plasma", "assay_type": "in vitro ADME", "description": "(§1) The stability of F-4N in plasma was assessed (FIG. 27). Compounds were incubated with human or mouse plasma. The percent of F-4N recovered was analyzed by LC-MS. Warfarin was used as a control for stable compound, and propantheline was used as a control for an unstable compound. Analysis was performed by Cyprotex (Framingham, MA)."}, "[8]": {"experiment": "Stability in human plasma", "assay_type": "in vitro ADME", "description": "as §1"}, "[9]": {"conditions": "10 mg/kg daily i.p. for 14 days"}, "[10]": {"conditions": "10 mg/kg daily i.p. for 14 days, qPCR"}, "[11]": {"conditions": "30 and 100 mg/kg daily oral gavage, 7 days"}}}
{"smiles": "O=c1c(O)c(-c2ccc(OCc3ccncc3)cc2)oc2ccccc12", "note": "[F—4N]", "values": [{"measurement": "EC50", "setting": "[1]", "result": 800, "unit": "nM"}, {"measurement": "IC50", "setting": "[2]", "result": "~200", "unit": "nM"}, {"measurement": "fibrosis and lung architecture by trichrome histological staining", "setting": "[3]; [9]", "result": "less fibrosis and improved lung architecture"}, {"measurement": "lung hydroxyproline content", "setting": "[3]; [9]", "result": "reduced"}, {"measurement": "whole lung expression of Collagen I", "setting": "[3]; [10]", "result": "reduced expression"}, {"measurement": "whole lung expression of senescence markers (Cdkn2a, Cdkn1a, Ccl2)", "setting": "[3]; [10]", "result": "reduced expression"}, {"measurement": "survival following bleomycin-induced fibrosis", "setting": "[3]; 10 mg/kg daily i.p. from day 14", "result": "improved survival"}, {"measurement": "levels of unbound (free) compound in plasma and liver", "setting": "[4]", "result": "higher in liver than plasma"}, {"measurement": "expression of fibrotic markers (qPCR)", "setting": "[5]", "result": "reduced expression"}, {"measurement": "expression of mature alveolar epithelial cell markers (qPCR)", "setting": "[5]", "result": "enhanced expression"}, {"measurement": "number of genes with reduced expression (RT2 Profiler PCR array of 89 cytokines and chemokines)", "setting": "[6]; 30 mg/kg, after 7 days of treatment", "result": 11, "unit": "genes"}, {"measurement": "weight change", "setting": "[6]; [11]", "result": "improved weight change"}, {"measurement": "whole lung RNA expression of profibrotic genes", "setting": "[6]; [11]", "result": "reduced expression"}, {"measurement": "stability in plasma (percent recovered, LC-MS)", "setting": "[7]", "result": "stable"}, {"measurement": "stability in plasma (percent recovered, LC-MS)", "setting": "[8]", "result": "stable"}]}
